Experimental data as given in article PMC2864571 (2010).
Where two headings read alike, the source gives them in different places.

What was measured:
[1] = test system: SK209-52 RNA (RNA, riboswitch, extra 5' G residues added for transcription (asterisks in Figure 1b)) GGUACCUGUCACAACGGCUUCCUGGCGUGACGAGGUGACCUCAGUGGAGCAA; assay: in-line probing
[2] = test system: SAM-Chlorobi RNA (longest construct) (RNA, mRNA element) GGAUUUUCCGGCAUCCCCAUUACCUAUGGACACGGUGCCAAAAGCUCUCUUGCGGGAGUUGUCCCCGGAGCUUGCCGAAAGGUUUCCCGUGUCCCGUUUGUCCCUCCGCGACAUUCACCUUCACGAGAAAACCGCAUCGGCAAACCGCCGGACACCUGCCGUUCUUGUCGUUCGAUUAACAAAAAACCGAAAGGGAAACUA; assay: in-line probing; settings: 1 mM tested; preliminary analysis
[3] = test system: SAM-Chlorobi RNA (second construct, shorter 3' end) (RNA, mRNA element) GGAUUUUCCGGCAUCCCCAUUACCUAUGGACACGGUGCCAAAAGCUCUCUUGCGGGAGUUGUCCCCGGAGCUUGCCGAAAGGUUUCCCGUGUCCCGUUUGUCCC; assay: in-line probing; settings: 1 mM tested; preliminary analysis
[4] = test system: SAM-Chlorobi RNA (third construct, shorter 3' end) (RNA, mRNA element) GGAUUUUCCGGCAUCCCCAUUACCUAUGGACACGGUGCCAAAAGCUCUCUUGCGGGAGUUGUCCCCGGAGCUUGCCGAAAGGUUUCC; assay: in-line probing; settings: 1 mM tested; preliminary analysis
[5] = test system: SAM-Chlorobi RNA (fourth construct, shortest 3' end) (RNA, mRNA element) GGAUUUUCCGGCAUCCCCAUUACCUAUGGACACGGUGCCAAAAGCUCUCUUGCGGGAGUU; assay: in-line probing; settings: 1 mM tested; preliminary analysis
[6] = test system: pfl RNA (RNA, riboswitch) GGUAAAAUAAGAAAAUCAUGCAACUGGCGGAAAUGGAGUUCACCAUAGGGAGCAUGAUUAAUAUAAGAAUCGACCGCCUGGGUAAAUUAAUA; assay: RNase T1 and V1 protection assay; settings: PRPP unstable; 1 mM in in-line probing list

Row | KD ([1]; SAM samples contain some SAH from spontaneous demethylation, apparent) | binding [2] | binding [3] | binding [4] | binding [5] | binding [6] | KD [1] | Structure (SMILES)
1 | ~ 8.6 μM | no | no | no | no |  |  | C[S+](CC[C@H](N)C(=O)O)C[C@H]1O[C@@H](n2cnc3c(N)ncnc32)[C@H](O)[C@@H]1O (some centres unmarked)
2 |  |  |  |  |  | no |  | O=P(O)(O)OC[C@H]1O[C@H](OP(=O)(O)OP(=O)(O)O)[C@H](O)[C@@H]1O
3 |  | no | no | no | no |  | ~ 4.3 μM | Nc1ncnc2c1ncn2[C@@H]1O[C@H](CSCC[C@H](N)C(=O)O)[C@@H](O)[C@H]1O
